Measurements taken from US8956645B2, “Water-soluble pharmaceutical composition comprising at least one therapeutically active substance having hydrophobic properties and at least one compound selected from among sialoglycosphingolipids, glycosphingolipids or a mixture of sialoglycosphingolipids and glycosphingolipids” (Consejo Nacional de Investigaciones Cientificas y Tecnicas …, priority 2010, dated 2015).

Columns and labels:
VERO and MA cells = assay: Cell viability by MTT assay, non-tumoral cells; format: cell-based; conditions: 24 hours
Protocol: FIG. 6: VERO and MA cells of non tumoral origin were incubated with increasing concentrations of: a)-( ? ) Ptx in DMSO, b)-( ? ) micelles of Ptx-GM1 1/25, c)-( ? ) micelles of GM1 and d)-( ? ) micelles of the albumine-Ptx-GM1 complex. Cellular viability was evaluated using MTT assay marker after 24 hs incubation.
(§1) Different cell types, tumoral such as HEP-2 and Hela, and non-tumoral as VERO and MA were incubated in MEM medium containing 2% fetal bovine serum (Natocor-Villa Carlos Paz—Córdoba—Argentina) in a CO2 incubator with 5% CO2, to confluence. Different concentrations of the compositions mentioned below were added to the cell culture: […]
(§2) a)—Ptx in DMSO as positive control b)—Ptx-GM1 micelles 1/25 molar ratio c)—GM1 micelles in equal concentrations as in b), to control the effect of the GM1 itself, and d)—micelles of the albumin-Ptx-GM1 complex
(§3) Cell viability was evaluated by MTT assay after 24 hours of incubation.

HEP-2 and Hela cells = assay: Cell viability by MTT assay, tumoral cells; format: cell-based; conditions: 24 hours
Protocol: FIG. 7: HEP-2 and HELA cells of tumor origin were incubated with increasing concentrations of: a)-( ? ) Ptx in DMSO, b)-( ? ) Ptx-GM1 micelles 1/25, c)-( ? ) GM1 micelles and d)-( ? ) micelles of the GM1-Ptx-albumine complex. Cellular viability was evaluated using MTT assay after 24 hs incubation.
as §1, §2, §3

Question: What does the source list for CC(=O)O[C@H]1C(=O)[C@@]2(C)[C@H]([C@H](OC(=O)c3ccccc3)[C@]3(O)C[C@H](OC(=O)[C@H](O)[C@@H](NC(=O)c4ccccc4)c4ccccc4)C(C)=C1C3(C)C)[C@]1(OC(C)=O)CO[C@@H]1C[C@@H]2O [Ptx, paclitaxel]?
Answer: concentration producing complete death (VERO and MA cells): 100 ng/mL; concentration producing complete death (HEP-2 and Hela cells): 10 ng/mL
